{"source": "paper PMC6927412", "about": "“PMP–diketopiperazine adducts form at the active site of a PLP dependent enzyme involved in formycin biosynthesis” (Chemical Communications (Cambridge, England), 2019)", "key": {"ForI [1]": {"molecular_target": "T1, ForI (Streptomyces kaniharaensis, UniProt A0A5S8ZI02)", "T1 construct": "gene cof17; homodimer, active site from both monomers; residues 3 to 417 located in crystal", "T1 sequence (A0A5S8ZI02 1-423)": "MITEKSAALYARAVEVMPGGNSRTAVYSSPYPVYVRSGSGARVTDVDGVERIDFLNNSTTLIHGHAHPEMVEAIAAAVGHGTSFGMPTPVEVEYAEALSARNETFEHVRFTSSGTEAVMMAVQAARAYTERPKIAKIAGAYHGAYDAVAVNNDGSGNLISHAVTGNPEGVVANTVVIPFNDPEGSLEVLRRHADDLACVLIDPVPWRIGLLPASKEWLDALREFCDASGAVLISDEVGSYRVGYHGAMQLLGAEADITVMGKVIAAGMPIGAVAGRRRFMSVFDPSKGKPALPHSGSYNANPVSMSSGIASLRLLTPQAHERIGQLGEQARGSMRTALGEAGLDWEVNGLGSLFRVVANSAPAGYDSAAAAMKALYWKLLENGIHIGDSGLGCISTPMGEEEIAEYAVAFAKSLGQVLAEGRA", "test": "UV-vis, mass spectrometry and crystal structure of the adduct", "type": "binding", "details": "covalent; reacts at PLP, bound species is the PMP-diketopiperazine adduct; 10 mM, pH 8, 4 °C"}, "ForI [2]": {"molecular_target": "T1, ForI", "test": "UV-vis spectrum of PLP cofactor; PMP form seen in crystal", "type": "biochemical", "details": "amino donor half-reaction; L-Glu itself not seen in density"}, "ForI [3]": {"molecular_target": "T1, ForI", "test": "X-ray crystal structure, […] Å", "type": "binding", "details": "crystals incubated with L-Glu for 20 min; non-covalent"}, "ForI [4]": {"molecular_target": "T1, ForI", "test": "X-ray crystal structure, […] Å; mass spectrometry", "type": "binding", "details": "pH 8"}}}
{"compound": "N[C@@H]1CONC1=O", "note": "[D-cycloserine]", "values": [{"measurement": "UV-vis, mass spectrometry and crystal structure of the adduct", "setting": "ForI [1]", "value": "Incubation of ForI with either D- or L-cycloserine immediately shows changes in the UV-vis spectrum"}]}
{"compound": "N[C@@H](CCC(=O)O)C(=O)O", "note": "[L-Glu]", "values": [{"measurement": "UV-vis spectrum of PLP cofactor; PMP form seen in crystal", "setting": "ForI [2]", "value": "Incubating ForI with L-Glu shows a rapid change in the UV-vis spectrum"}]}
{"compound": "N[C@H]1CONC1=O", "note": "[L-cycloserine]", "values": [{"measurement": "UV-vis, mass spectrometry and crystal structure of the adduct", "setting": "ForI [1]", "value": "Incubation of ForI with either D- or L-cycloserine immediately shows changes in the UV-vis spectrum"}]}
{"compound": "Cc1ncc(COP(=O)(O)O)c(CN)c1O", "note": "[PMP]", "values": [{"measurement": "X-ray crystal structure, 1.56 Å", "setting": "ForI [3]", "value": "the pyridoxal co-factor is unattached to the enzyme, suggesting it to be PMP"}]}
{"compound": "Cc1ncc(COP(=O)(O)O)c(/C=N/OC[C@H]2NC(=O)[C@@H](CON)NC2=O)c1O", "note": "[PMP–diketopiperazine from D-cycloserine]", "values": [{"measurement": "X-ray crystal structure, 1.5 Å; mass spectrometry", "setting": "ForI [4]; covalent adduct of PLP cofactor formed on incubation with 10 mM D-cycloserine", "value": "identified the formation of external aldimine PLP–diketopiperazine adducts"}]}
{"compound": "Cc1ncc(COP(=O)(O)O)c(/C=N/OC[C@@H]2NC(=O)[C@H](CON)NC2=O)c1O", "note": "[PMP–diketopiperazine from L-cycloserine]", "values": [{"measurement": "X-ray crystal structure, 1.5 Å; mass spectrometry", "setting": "ForI [4]; covalent adduct of PLP cofactor formed on incubation with 10 mM L-cycloserine", "value": "identified the formation of external aldimine PLP–diketopiperazine adducts"}]}
